In patent US11613552B2, “Pharmaceutical agents, compositions, and methods relating thereto” (Alltech, Inc., priority 2017, dated 2023):

What was measured:
HepG2 cells = experiment: Glucose production assay in HepG2 cells; assay type: cell-based, human; conditions: tested doses, serum-free glucose production media, 48 hr (FIG. 1)
Protocol: Equal numbers of Human HepG2 or rat H4IIE cells (1-1.5×10^5 cells/well) were seeded on 96 well plates in 10% FBS-containing media for 24 hr. Cells were then washed twice with PBS, and treated with various concentrations of compounds, metformin or insulin in 100 μl of glucose production media (glucose-free, phenol red-free DMEM media supplemented with 20 mM sodium lactate, 2 mM sodium pyruvate and 5 mM HEPES) at 37° C. for 24 hr (H4IIE cells only) or 48 hr (HepG2 cell only). Cells were also incubated with 0.24% DMSO (the maximal volume of DMSO solvent used in the experiments).
After the above treatments, 50 μl of culture media were collected, and subjected to glucose analysis using Molecular Probes Amplex Red glucose assay kit (Cat #A22189) according to the manufacturer's protocol. Cell numbers or viability in the culture plate after the above compound treatments were determined using Promega's CellTiter96® AQueous One Solution Cell Proliferation Assay kits, according to the manufacturer's protocol and instructions. In brief, after removing 50 μl of culture media for glucose assay, cells were incubated with AQueous One solution (25 μl stock solution and 50 μl prewarmed PBS/per well) at 37° C. for 1 hour, and the absorbance of OD490 nm in each sample was determined by the Bio-Tek microplate reader. Cell viability in culture wells were determined by the subtraction of OD490 nm in cultured cells with the OD490 nm in plain culture media (without seeding of cells). Glucose production in the culture cells were obtained by normalizing the glucose concentration in culture media by cell viability in each well. At least 3 samples per each treatment were examined for the above analysis. Data are presented as Mean±SEM of those samples. Experiments were repeated at least twice.
The half maximal inhibitory concentration (IC50 values) of Compound #43 or metformin for the inhibition of glucose production were determined using the ED50 Plus v1.0 online software.

G6pc [1] = experiment: QRT-PCR of basal G6pc expression in AML-12 cells; assay type: cell-based, mouse; conditions: 300 ppb selenium (3.8 μM), serum-free, 24 hr (FIG. 10A)
Protocol: For RNA analysis of basal G6pc expression (without the presence of diabetic stimuli: 8-CPT/Dex), amplified AML-12 and HepG2 cells were cultured on 24-well plates (0.5-2×10^5 cells/well) overnight in 10% FBS ITS- and Dex-free DMEM/F12 media and 10% FBS EMEM media, respectively. These cells were rinsed twice with PBS to remove residual sera. Then, the PBS-washed HepG2 cells were treated without or with insulin or Compound #43 in serum-free EMEM media for 40 hr. In some experiments, the PBS-washed AML-12 cells were incubated without or with Compound #43 or other selenium compounds in serum-free DMEM/F12 media for 24 hours. In other experiments, amplified AML-12 cells were pretreated without or with Compound #43 (150 or 300 ppb) in 10% FBS but ITS/Dex-free DMEM/F12 media for 24 hr. After 24 hr treatment, AML-12 cells were washed twice with PBS (to remove any residual serum in the culture) and then treated with insulin, Compound #43 or both, in the serum-free DMEM/Dex media for 6 hr.
(§1) Total RNA from saline- or selenium compound-treated Lepr^db/db mice was isolated using a Qiagen RNAeasy RNA isolation kit according to the Manufacturer's protocol. Total RNA from cultured cells was isolated using Trizol (Invitrogen) according to the manufacturer's protocol, and then incubated with DNase I to remove any potential contaminating genomic DNA. RNA samples were subjected to real-time PCR (QRT-PCR) analysis using Applied-Bioscience's RT kit and predesigned Taqman probes (Invitrogen), as described previously (Lan et al EMBO J 2003). Data were normalized by Actin B (Actb) mRNA levels in each sample, and are presented as mean±SEM of 3-5 samples.

Glut4 = experiment: QRT-PCR of Glut4 mRNA in livers of Lepr^db/db mice; assay type: in vivo, mouse; conditions: 25 μg selenium/kg ip daily, 52 days (FIG. 15)
Protocol: Male Lepr^db/db mice (C57BL/6J strain, purchased from The Jackson Laboratory) at postnatal day 38 were intraperitoneally injected daily with physiological saline ([…]) containing 0.2% DMSO, Compound #43, or Compound #50 (25 μg selenium of each compound per kilogram body weight, diluted in sterile physiological saline) for 52 days. After treatment, livers were collected and subjected to RNA analysis.
Total liver RNA from saline- or Compound #43-treated Lepr^db/db mice was isolated using a Qiagen RNAeasy RNA isolation kit according to the Manufacturer's protocol. Total RNA from cultured cells was isolated using Trizol (Invitrogen) according to the manufacturer's protocol, and then incubated with DNase I to remove any potential contaminating genomic DNA. RNA samples were subjected to real-time PCR analysis using Applied-Bioscience's RT kit and predesigned Taqman probes (Invitrogen), as described previously (Lan et al EMBO J 2003). Data were normalized by Actin B (Actb) mRNA levels in each sample and are presented as mean±SEM of 3-5 samples.

Lepr^db/db mice = experiment: Glucose tolerance test in Lepr^db/db mice; assay type: in vivo, mouse
Protocol: Male Lepr^db/db mice at 38 days of age were intraperitoneally (ip) injected daily with physiological saline ([…]) containing 0.2% DMSO, Compound #C, Compound #50, Compound #68, and/or Compound #43 (25 μg selenium or sulfur equivalents of each compound per kilogram body weight, diluted in sterile physiological saline) for periods ranging from 43-90 days. Body weights of the above treated mice were recorded daily using a balance and any visible abnormal animal gross morphology and walking behavior were monitored daily. After the treatments, animals were fasted overnight and then subjected to blood glucose or HbA1c assays, glucose tolerance tests or tissue collections.
For comparative studies of any potential anti-diabetic effects of Compounds #43, #69 and #70, male Lepr^db/db mice at 41 days of age were intraperitoneally (ip) injected daily with physiological saline ([…]) containing 0.2% DMSO, Compound #43, Compound #69, or Compound #70 (25 μg selenium of each compound per kilogram body weight, diluted in sterile physiological saline). After the treatments for 43 days, animals were fasted overnight and then subjected to blood glucose and glucose tolerance tests. After daily treatments of these compounds for 90 days, sera from these animals were collected and then subjected to blood HbA1c assays.
Glucose tolerance tests were performed as described previously (Li et al, Int J Biol Sci 2008; 4:29-36). Briefly, overnight-fasted Lepr^db/db mice after saline or compound treatments were injected intraperitoneally with 2 grams/kg body weight of 20% D-glucose. Blood glucose levels at time 0 (immediately before the injection of glucose), 0.25, 0.5, 1 and 2 hours after injection of glucose were determined using a glucometer with a maximum glucose measurement capacity of 600 mg/dL. Because of this, blood glucose levels over 600 mg/dL were counted as 600 mg/dL in the data analysis.

G6pc [2] = experiment: QRT-PCR of G6pc mRNA in livers of Lepr^db/db mice; assay type: in vivo, mouse; conditions: 25 μg selenium/kg ip daily, 52 days (FIG. 9)
Protocol: Male Lepr^db/db mice (C57BL/6J strain, purchased from The Jackson Laboratory) at 38-days of age were intraperitoneally injected daily with physiological saline ([…]) containing 0.2% DMSO, Compound #50, or Compound #43 (25 μg selenium equivalent of each compound per kilogram body weight, diluted in the sterile physiological saline) for 52 days. After the treatment, livers were collected and subjected RNA analysis.
as §1

brain cells = conditions: cited from earlier work
Tau = conditions: AD brains; cited from earlier work
C2C12 cells = conditions: each individually, mouse skeletal muscle myoblast C2C12 cells; cited from earlier work

Row | Structure (SMILES) | effect on glucose production in HepG2 cells (HepG2 cells) | effect on G6pc expression (G6pc [1]) | effect on Glut4 mRNA levels in the liver (Glut4) | blood glucose level at 2 hr after glucose injection (Lepr^db/db mice; FIG. 8A, 43 days treatment) | blood glucose levels at 0.25, 0.5 and 1 hr after glucose injection (Lepr^db/db mice; FIG. 8A, 43 days treatment) | effect on G6pc mRNA levels in the liver (G6pc [2]) | gluconeogenesis in brain cells (brain cells) | glucose tolerance (overall) (Lepr^db/db mice; 25 μg selenium/kg ip daily 43 days from day 38, glucose 2 g/kg (FIG. 8A)) | Tau hyperphosphorylation (Tau) | mitochondrial (MT) potential (C2C12 cells)
1 | C[Se]C[C@H]1O[C@@H](n2cnc3c(N)ncnc32)C2OC(=O)OC21 (stereo partly shown) [Compound #50, Adenosine, 5′-Se-methyl-5′-seleno-, cyclic 2′,3′-carbonate] | inhibited glucose production | did not significantly inhibit G6pc expression | numerically increased Glut4 mRNA levels | significant decrease of glucose level | no obvious decrease | slightly, but not significantly, decreased | – | – | – | –
2 | C[Se]C[C@H]1O[C@@H](n2cnc3c(N)ncnc32)[C@@H](O)C1O (stereo partly shown) [Compound C, 5′-Methylselenoadenosine, reference compound] | inhibited glucose production | did not significantly inhibit G6pc expression | – | – | – | – | can enhance gluconeogenesis in brain cells | did not improve glucose tolerance | can inhibit Tau hyperphosphorylation in AD brains | can enhance mitochondrial (MT) potential
3 | Nc1ncnc2c1ncn2[C@@H]1O[C@H](C[Se]CC[C@H](N)C(=O)O)C(O)C1O (stereo partly shown) [Compound D, 5′-Selenoadenosyl homocysteine, reference compound] | inhibited glucose production | did not significantly inhibit G6pc expression | – | – | – | – | – | – | can inhibit Tau hyperphosphorylation in AD brains | can enhance mitochondrial (MT) potential
